Where a name gives a salt, the structure may show the parent alone.
How the values were obtained:
[1] = stability of 17 infused compounds in stored wristbands; assay type: physicochemical; conditions: for Overall RSD from entire study to 28 days: RSD across all time and temperature samples (−20° C., 4° C., 30° C.); for Beginning RSD from starting time point: RSD of concentration (ng/mL), extraction immediately following infusion
Protocol: In another example, the stability of wristbands infused with 17 compounds of varied physiochemistry was studied for various combinations of times and temperatures. […] Twelve wristbands underwent solvent extraction and analysis immediately following infusion. The remaining wristbands were divided into three groups and one group of wristbands was stored at each of −20° C., 4° C., and 30° C. Four wristbands from each temperature group underwent solvent extraction and analysis after 7 days and after 28 days. Four wristbands from the −20° C. and 4° C. temperature groups underwent solvent extraction and analysis after 14 days. This stability study is ongoing and will span 2 years.

[2] = stability of PAH-infused wristbands stored in PTFE bags at three temperatures; assay type: physicochemical; conditions: −20° C., 23° C. or 35° C., 72 hours
Protocol: Studies were carried out to examine whether PAHs would degrade after being sequestered by a wristband or whether field or handling conditions would influence exposure concentrations determined during wristband analysis.
The PAH-infused wristbands placed in PTFE storage bags were exposed to a temperature of −20° C. (in a walk-in freezer), 23° C. (ambient temperature), or 35° C. (in a drying oven) for 72 hours. Temperatures in each environment were monitored every 30 minutes using a temperature logger. Following the 72-hour exposure, the PAHs were extracted from the wristbands using solvent extraction and analyzed as described above.
In FIG. 14, the ratio of each analyte response divided by an internal standard response (for perylene-d12) are shown, because an error with surrogate recovery artificially inflated the variance across the three temperature exposures. […] The largest change among all PAH analytes was still less than 13% (fluorene-d10, freezer and ambient temperatures), so any changes in PAH concentrations were deemed negligible. Furthermore, potential changes in concentration would have been conserved since transportation was similar among wristbands within each temperature group. […] The standard deviations in FIG. 14 are the result of three replicates.

For `[2H]c1c([2H])c([2H])c2c(c1[2H])C(=O)c1c([2H])c([2H])c([2H])c([2H])c1C2=O` [Anthraquinone-d8, reference compound], the “Overall RSD from entire study to 28 days” value [1] was 14% and the “Beginning RSD from starting time point” value [1] was 8%.
For `Brc1ccc(Oc2ccc(Br)cc2Br)c(Br)c1` [PBDE 47], the “Overall RSD from entire study to 28 days” value [1] was 37% and the “Beginning RSD from starting time point” value [1] was 37%.
For `Brc1ccc(Oc2cc(Br)c(Br)cc2Br)c(Br)c1` [PBDE 99], the “Overall RSD from entire study to 28 days” value [1] was 43% and the “Beginning RSD from starting time point” value [1] was 46%.
With `Brc1cc(Br)c(Oc2cc(Br)c(Br)cc2Br)c(Br)c1` [PBDE 154] the “Overall RSD from entire study to 28 days” value [1] was 51% and the “Beginning RSD from starting time point” value [1] was 53%.
In the case of `[2H]c1c([2H])c([2H])c(-c2c(Cl)c(Cl)cc(Cl)c2Cl)c([2H])c1[2H]` [PCB-65-d5, reference compound], the “Overall RSD from entire study to 28 days” value [1] is reported as 37% and the “Beginning RSD from starting time point” value [1] is reported as 35%.
For `[2H]c1c([2H])c([2H])c(-c2c(Cl)c(Cl)c(Cl)c(Cl)c2Cl)c([2H])c1[2H]` [PCB-116-d5, reference compound], the “Overall RSD from entire study to 28 days” value [1] was 44% and the “Beginning RSD from starting time point” value [1] was 45%.
With `[2H]c1c([2H])c(-c2cc(Cl)c(Cl)c(Cl)c2Cl)c([2H])c(Cl)c1Cl` [PCB-156-d3, reference compound] the “Overall RSD from entire study to 28 days” value [1] was 50% and the “Beginning RSD from starting time point” value [1] was 53%.
For `O=P(OC(CCl)CCl)(OC(CCl)CCl)OC(CCl)CCl` [TCDPP, 1,3-dichloro-2-propyl phosphate], the “Overall RSD from entire study to 28 days” value [1] was 14% and the “Beginning RSD from starting time point” value [1] was 10%.
For `CCOP(=S)(OCC)Oc1nc(Cl)c(Cl)cc1Cl` [chlorpyrifos], the “Overall RSD from entire study to 28 days” value [1] was 24% and the “Beginning RSD from starting time point” value [1] was 19%.
For `O=S1(=O)OCC2C(CO1)C1(Cl)C(Cl)=C(Cl)C2(Cl)C1(Cl)Cl` (stereo not drawn) [endosulfan sulfate], the “Overall RSD from entire study to 28 days” value [1] was 10% and the “Beginning RSD from starting time point” value [1] was 8%.
With `O=C1C2CC3C1C1(Cl)C(Cl)C4(Cl)C2C3C1(Cl)C4(Cl)Cl` (stereo not drawn) [endrin Ketone] the “Overall RSD from entire study to 28 days” value [1] was 8% and the “Beginning RSD from starting time point” value [1] was 4%.
For `[2H]c1c([2H])c([2H])c2c(c1[2H])-c1c([2H])c([2H])c([2H])c([2H])c1C2([2H])[2H]` [fluorene-d10, reference compound], the “largest change in analyte response ratio between temperature groups” value [2] was “less than 13%”, the “Overall RSD from entire study to 28 days” value [1] was 16% and the “Beginning RSD from starting time point” value [1] was 14%.
In the case of `CCCSP(=O)(OCC)SCCC` [prophos/ethoprophos], the “Overall RSD from entire study to 28 days” value [1] is reported as 11% and the “Beginning RSD from starting time point” value [1] is reported as 8%.
In the case of `[2H]c1c([2H])c2c([2H])c([2H])c3c([2H])c([2H])c([2H])c4c([2H])c([2H])c(c1[2H])c2c34` [pyrene-d10, reference compound], the “Overall RSD from entire study to 28 days” value [1] is reported as 32% and the “Beginning RSD from starting time point” value [1] is reported as 27%.
With `[2H]c1c([2H])c(Oc2ccc(Cl)cc2O)c(Cl)c([2H])c1Cl` [triclosan-d3, reference compound] the “Overall RSD from entire study to 28 days” value [1] was 11% and the “Beginning RSD from starting time point” value [1] was 9%.
In the case of `O=P(Oc1ccccc1)(Oc1ccccc1)Oc1ccccc1` [triphenyl phosphate], the “Overall RSD from entire study to 28 days” value [1] is reported as 12% and the “Beginning RSD from starting time point” value [1] is reported as 6%.

From patent US9849489B2, “Passive sampling devices” (priority 2015, dated 2017)
